Here are results for four molecules from US5688767A, “Treatment of endotoxin-associated disorders with cationic peptides” (priority 1996, dated 1997).

Experiment [1] can be described thus: MIC of common antibiotics in the presence of sub-MIC levels of cationic peptides. The class given is cell-based. From the text: The ability of the cationic peptides to work synergistically was examined by determining the MIC values for some commonly used antibiotics in the presence of sub-MIC levels of cationic peptides (Table 4). […] This may be due to the high membrane permeabilizing activity of CEMA (see below). However, the peptides did lower the MIC of polymyxin B, possibly due to the fact that they are all taken up by the same pathway and are therefore aiding each other's uptake. Of interest is the influence that melittin has on the MIC of polymyxin B, given the weak membrane permeabilizing activity of melittin.

Experiment [2] concerns P. AERUGINOSA H309. Description: microbe, parasite or virus in culture. The class given is cell-based, Pseudomonas aeruginosa. Here is the method: (§1) Briefly, cells were grown overnight at 37° C. in LB-S (Luria broth without any salt supplement) and diluted one in 10,000 in the same medium to give concentrations of about 10^4 to 10^5 CFU/ml. The broth dilutions were set up in a 96 well microtiter plate by putting 200 μl of LB-S containing the initial concentration of antibiotic or compound in column 1 and 100 μl of the same medium in columns 2-12. The compounds were diluted by taking 100 μl of broth from column 1 and mixing it with column 2, resulting in a one in two dilution. This was continued to column 10. Finally, 10 μl of bacteria were pipetted into columns 1-11, and the plates incubated overnight at 37° C. The next day the plates were scored for growth in the wells, and the MIC determined.

In experiment [3] the test system is E. cloacae. Description: microbe, parasite or virus in culture. The format is cell-based, Enterobacter cloacae. Here is the method: as §1, with “The minimum inhibitory concentrations of (MIC) of CEME, CEMA and melittin were determined for a number of different bacteria (Table 2). Briefly,” for “Briefly,”
(§2) Bacteria included the Bort strain of E. coli (Bortolussi, et al., Inf. Immun., 25:293, 1979) that was originally derived from a case of neonatal meningitis, and which is therefore considered a relevant pathogenic strain to study, and the 0111:B4 strain of E. coli (kindly provided by Dr. D. Morrison) which is a standard source of endotoxin. (Kelly, et al., Inf. Immun., 59:4491, 1991). In addition, P. aeruginosa PA01 strain H103, P. aeruginosa M2, P. aeruginosa K799, Eschericha coli UB 1005, Enterobacter cloacae 218S, Salmonella typhimurium MS7953s, Klebsiella pneumoniae ATCC 13883, Xanthomonas maltophilia ATCC 13637, and Acinetobacter calcoacetious 8193 were employed. LPS was obtained from E. coli Bort by the technique of Westphal and Jann, (Westphal, et al., Acad. Press, Inc. NY., 5:83) and from P. aeruginosa H103 by the method of Darveau and Hancock, (Darveau, et al., J. Bacteriol, 155:831, […]). E. coli 0111:B4 LPS was purchased from Sigma.

Experiment [4] concerns S. aureus. Description: microbe, parasite or virus in culture. The class given is cell-based, Staphylococcus aureus. On the procedure:
as §1, with “The minimum inhibitory concentrations of (MIC) of CEME, CEMA and melittin were determined for a number of different bacteria (Table 2). Briefly,” for “Briefly,”

The test system of experiment [5] is E. coli. Kind of experiment: microbe, parasite or virus in culture. The class given is cell-based, Escherichia coli. Here is the method: as §1, with “The minimum inhibitory concentrations of (MIC) of CEME, CEMA and melittin were determined for a number of different bacteria (Table 2). Briefly,” for “Briefly,”
as §2

The test system of experiment [6] is S. typhimurium. Kind of experiment: microbe, parasite or virus in culture. The format is cell-based, Salmonella typhimurium. Here is the method:
as §1, with “The minimum inhibitory concentrations of (MIC) of CEME, CEMA and melittin were determined for a number of different bacteria (Table 2). Briefly,” for “Briefly,”
as §2

The test system of experiment [7] is P. aeruginosa. Description: microbe, parasite or virus in culture. The class given is cell-based, Pseudomonas aeruginosa. On the procedure:
as §1, with “The minimum inhibitory concentrations of (MIC) of CEME, CEMA and melittin were determined for a number of different bacteria (Table 2). Briefly,” for “Briefly,”
as §2

For experiment [8], the system named is P. aeruginosa H309 Whole Cells. Description: DPx binding inhibition using whole cells. Further details: species or system Pseudomonas aeruginosa. Conditions: DPx at 90-100% binding saturation, average of at least three trials. On the procedure: For DPx binding inhibition assays using whole cells instead of purified LPS, H309 cells were prepared the same way as for the lysozyme lysis assay. The assay consisted of 10 μl of cells at an OD600 of 0.5, 990 μl of 5 mM HEPES pH 7.2 and 5 mM KCN, and the concentration of DPx that gave 90-100% binding saturation. […] Compounds were titrated in, and I50 values were determined as described above.

Experiment [9] has as its target P. aeruginosa H103 LPS. Kind of experiment: Dansyl polymyxin (DPx) displacement from purified LPS. The format is binding, Pseudomonas aeruginosa. Conditions: 2.5 μM DPx, 3 μg/ml LPS, 5 mM HEPES pH 7.2, average of at least three trials. On the procedure: In this assay, DPx was incubated with LPS to saturate the binding sites and then, while polycationic compounds are titrated into the reaction, displacement of the DPx was monitored by the decrease in fluorescence (FIG. 9). P. aeruginosa LPS was isolated as previously described (Darveau, et al., J of Bacteriology, 155:831, 1983) Dansyl polymyxin was synthesized as described by Schindler, et al., B. Antimicrobial Agents and Chemo, 8:95, 1975.
The method of Moore, et al., (Antimicrobial Agents and Chemo., 29:496, 1987), was used to test how much DPx was needed to saturate the binding sties on LPS. Briefly, 5 μl samples of 100 μM DPx were titrated sequentially into 1 ml of 3 μg/ml of LPS until a maximum fluorescence was reached. The fluorescence was measured in a Perkin-Elmer 650-10S fluorescence spectrophotometer with an excitation wavelength of 340 nm and an emission wavelength of 485 nm using slit widths of 5 nm. […] For the binding inhibition assays (Moore, et al., Antimicrobial Agents and Chemo., 29:496, 1987), 2.5 μM DPx was added to 3 μg/ml of H103 LPS in 5 mM HEPES pH 7.2. The test compounds were added 5 μl at a time and the decrease in fluorescence due to displacement of the DPx from the LPS was recorded.
When the data was plotted as a double reciprocal plot (FIG. 10), the X-intercept provided a value that is equal to -1/I50.

In brackets after ≈: the same amount, converted by molar mass. Like-named read-outs stand apart in the source and are kept apart here. Where only a bound is given, the exact number is not on record here.

Take `CN(C)[C@@H]1C(O)=C(C(N)=O)C(=O)[C@@]2(O)C(O)=C3C(=O)c4c(O)cccc4[C@@](C)(O)[C@H]3C[C@@H]12` [Tetracycline, tetracycline]: the “MIC in the presence of” value is listed as 8 μg/m1 in experiment [1] (CEMA 0.7 μg/ml); 4 μg/m1 in experiment [1] (CEMA 1.4 μg/ml); 8 μg/m1 in [1] (CEME 0.6 μg/ml); 8 μg/m1 in [1] (CEME 1.2 μg/ml); 8 μg/m1 in experiment [1] (Melittin 2 μg/ml); 8 μg/m1 in experiment [1] (Melittin 4 μg/ml). Moreover, the “MIC in the presence of” value in [1] (No peptide) amounted to 8 μg/m1.

Consider `CC(C)(O/N=C(\C(=O)N[C@@H]1C(=O)N2C(C(=O)[O-])=C(C[n+]3ccccc3)CS[C@H]12)c1csc(N)n1)C(=O)O` [Ceftazidime, ceftazidime], for which the MIC in [2] (Pseudomonas aeruginosa, +5 mM Mg^++, read-out: MIC) was 2 µg/mL (≈ 3.66 µM); in experiment [2] (Pseudomonas aeruginosa, +80 mM Na^+, read-out: MIC), 2 µg/mL (≈ 3.66 µM); in experiment [2] (Pseudomonas aeruginosa, No addition, read-out: MIC), 1 µg/mL (≈ 1.83 µM); in [3] (Enterobacter cloacae, strain 218R1, β-lactam resistant) it was more than 16 µg/mL; in experiment [3] (Enterobacter cloacae, strain 218S, Parent of 218R1 (Table 2)), 0.5 µg/mL (≈ 0.915 µM); in experiment [4] (Staphylococcus aureus, strain RN4220, Methicillin sensitive), 8 µg/mL (≈ 14.6 µM). In addition, the MIC was more than 16 µg/mL in experiment [4] (Staphylococcus aureus, strain SAP0017, Methicillin resistant); 0.12 µg/mL (≈ 0.22 µM) in experiment [5] (Escherichia coli, SC9251 / SC9252, strain SC9251, Parent of SC9252); 0.5 µg/mL (≈ 0.915 µM) in experiment [5] (Escherichia coli, SC9252, strain SC9252, Polymyxin resistant); 0.06 µg/mL (≈ 0.11 µM) in experiment [5] (Escherichia coli, strain DC2, Polymyxin sensitive); 0.5 µg/mL (≈ 0.915 µM) in [5] (Escherichia coli, strain UB1005, Parent of DC2 (Table 2)); 0.25 µg/mL (≈ 0.457 µM) in experiment [6] (Salmonella enterica, TYPHIMURIUM). Further, the MIC in experiment [6] (strain C590, Defensin sensitive) turned out to be 0.25 µg/mL (≈ 0.457 µM); in experiment [7] (Pseudomonas aeruginosa, strain H187, Parent of H188, read-out: MIC), 2 µg/mL (≈ 3.66 µM); in experiment [7] (Pseudomonas aeruginosa, strain H188, Antibiotic sensitive, read-out: MIC) it was 0.03 µg/mL (≈ 0.0549 µM); in experiment [7] (Pseudomonas aeruginosa, strain H309, Wildtype, read-out: MIC), 1 µg/mL (≈ 1.83 µM). The “MIC in the presence of” value in experiment [1] (CEMA 0.7 μg/ml) is on record as 2 μg/m1; in experiment [1] (CEMA 1.4 μg/ml), 2 μg/m1; in experiment [1] (CEME 0.6 μg/ml), 4 μg/m1; in [1] (CEME 1.2 μg/ml), 4 μg/m1; in [1] (Melittin 2 μg/ml), 4 μg/m1; in experiment [1] (Melittin 4 μg/ml), 2 μg/m1. Also, the “MIC in the presence of” value in experiment [1] (No peptide) is 4 μg/m1.

As for `C[C@@H](O)[C@H]1C(=O)N2C(C(=O)O)=C(SCCN=CN)C[C@H]12` [Imipenem, imipenem], the “MIC in the presence of” value in experiment [1] (CEMA 0.7 μg/ml) worked out at 4 μg/m1; in experiment [1] (CEMA 1.4 μg/ml), 2 μg/m1; in experiment [1] (CEME 0.6 μg/ml) it was 4 μg/m1; in [1] (CEME 1.2 μg/ml), 4 μg/m1; in [1] (Melittin 2 μg/ml) it was 4 μg/m1; in experiment [1] (Melittin 4 μg/ml), 4 μg/m1. In addition, the “MIC in the presence of” value in experiment [1] (No peptide) came to 4 μg/m1.

Consider gentamicin, for which the MIC in experiment [2] (+5 mM Mg^++) is 4 µg/mL; in experiment [2] (+80 mM Na^+), 1 µg/mL; in experiment [2] (No addition), 1 µg/mL; in experiment [3] (strain 218S, Parent of 218R1 (Table 2)), 0.5 µg/mL; in experiment [4] (strain RN4220, Methicillin sensitive), 2 µg/mL; in experiment [4] (strain SAP0017, Methicillin resistant), more than 8 µg/mL. Further, the MIC in [5] (strain UB1005, Parent of DC2 (Table 2)) was 1 µg/mL; in experiment [7] (strain H187, Parent of H188), 1 µg/mL; in experiment [7] (strain H188, Antibiotic sensitive), 0.25 µg/mL; in [7] (strain H309, Wildtype), 1 µg/mL. Further, the “I50, Value in μg/ml” value in experiment [8] worked out at 36.92 ± 9.12 µg/mL; in [9], 18.16 ± 6.77 µg/mL. Further, the IC50 in [9] (read-out: I50, Value in μM) stood at 19.2 ± 7.18 µM.
